Data reported in ChEMBL document CHEMBL1201862, “PubChem BioAssay data set” (2004).
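Values below derive from 48-hour exposures of cells grown in 96-well plates, with endpoints linearly interpolated between the two concentrations bracketing the appropriate inhibition level. GI50 = concentration required for 50% inhibition of growth.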 Active and inactive are the calls of the source. No stated cut-off is given here; in the data, active = GI50 up to about 1.1 µM and inactive = higher.

What was measured:
Assay in all cases: growth of human tumour cells (NCI), 48 h
[1] = tested on: 786-0
[2] = tested on: PC-3
[3] = tested on: SF-295
[4] = tested on: UO-31
[5] = tested on: SK-MEL-5
[6] = tested on: LOX IMVI
[7] = tested on: DU-145
[8] = tested on: IGROV-1
[9] = tested on: NCI-H522
[10] = tested on: NCI/ADR-RES
[11] = tested on: M14
[12] = tested on: SNB-19
[13] = tested on: K562
[14] = tested on: UACC-257
[15] = tested on: MDA-N
[16] = tested on: MCF7
[17] = tested on: HCT-116
[18] = tested on: Hs-578T
[19] = tested on: T47D
[20] = tested on: LXFL 529

Measured: GI50

CCOC(=O)/C=C(\C(=O)OCC)n1ccc(=O)n(Cc2cn(COCCOC(C)=O)nn2)c1=O
inactive: [1] 15.7 µM | [2] 20.3 µM | [3] > 100 µM | [4] 17.7 µM | [5] 21.5 µM | [6] 17.9 µM | [7] 38.8 µM | [8] 21.1 µM | [9] 2.71 µM | [10] 20.3 µM | [11] 39.8 µM | [12] > 50.4 µM | [13] 24 µM | [14] 22 µM | [15] 35.2 µM | [16] 17.1 µM | [17] 16.3 µM | [18] 26.5 µM | [19] 24.3 µM

O=c1[nH]c(=O)n(C2OC(CO)C(O)C2O)c2nc(-c3ccc(-c4ccccc4)cc3)cnc12 (stereo not given)
inactive: [1] > 100 µM | [2] > 100 µM | [3] > 100 µM | [4] > 100 µM | [5] 40.6 µM | [6] > 100 µM | [7] > 100 µM | [8] > 100 µM | [9] > 100 µM | [10] > 100 µM | [11] 81.8 µM | [12] > 100 µM | [13] > 100 µM | [14] > 100 µM | [15] > 100 µM | [16] > 100 µM | [17] > 100 µM | [18] > 100 µM | [19] > 100 µM

O=c1c2cc3ccccc3n2c(=O)c2cc3ccccc3n12
inactive: [1] > 100 µM | [3] > 100 µM | [4] > 100 µM | [5] > 100 µM | [6] > 100 µM | [9] > 100 µM | [11] > 100 µM | [12] > 100 µM | [20] > 100 µM | [13] > 100 µM | [14] > 100 µM | [17] > 100 µM

COc1cc2ccc(C(C)NCC#N)cc2cc1OC (stereo not given)
inactive: [1] > 100 µM | [2] > 100 µM | [3] > 100 µM | [4] > 100 µM | [5] > 100 µM | [6] > 100 µM | [7] > 100 µM | [8] > 100 µM | [9] > 100 µM | [10] > 100 µM | [11] > 100 µM | [12] > 100 µM | [13] > 100 µM | [14] > 100 µM | [15] > 100 µM | [16] > 100 µM | [17] > 100 µM | [18] > 100 µM | [19] > 100 µM

CC(C)N(O)C(=N)c1ccccc1
inactive: [1] 54.7 µM | [3] > 100 µM | [4] > 100 µM | [5] > 100 µM | [6] > 100 µM | [9] > 100 µM | [11] > 100 µM | [12] > 100 µM | [20] > 100 µM | [14] > 100 µM | [17] > 100 µM

N=C1N=C(N)c2cc3c(cc21)SCCSCCCSCCS3
inactive: [1] 14.2 µM | [2] 15.1 µM | [3] 13.9 µM | [4] 49.9 µM | [5] 16 µM | [6] 4.38 µM | [7] 31.6 µM | [8] 17.2 µM | [9] 2.8 µM | [10] 58.1 µM | [11] 16.6 µM | [12] 15.5 µM | [13] 4.71 µM | [14] 20.2 µM | [15] 15 µM | [16] 27 µM | [17] 9.59 µM | [18] 10.1 µM | [19] 24.8 µM

O=c1c2cc(Br)ccc2[nH]c(=S)n1-c1ccc(Br)cc1
inactive: [1] 40.6 µM | [3] 45.5 µM | [4] > 100 µM | [6] 70.6 µM | [8] > 100 µM | [9] > 100 µM | [12] 47.9 µM | [20] > 100 µM | [13] > 100 µM | [14] > 100 µM | [17] 89.7 µM

O=C(CCc1nnc(S)[nH]1)NC12CC3CC(CC(C3)C1)C2
inactive: [1] > 100 µM | [3] > 100 µM | [4] > 100 µM | [5] > 100 µM | [6] > 100 µM | [8] > 100 µM | [11] > 100 µM | [12] > 100 µM | [20] > 100 µM | [13] > 100 µM | [14] > 100 µM | [17] > 100 µM

CN(C)C(=N/O)/C(=N\O)N(C)C
inactive: [1] > 100 µM | [3] > 100 µM | [4] > 100 µM | [6] > 100 µM | [8] > 100 µM | [9] > 100 µM | [11] > 100 µM | [12] > 100 µM | [20] > 100 µM | [13] > 100 µM | [14] > 100 µM | [17] > 100 µM

O=C1C(Cl)=C(N2CCN(c3ncccn3)CC2)C(=O)c2c(O)ccc(O)c21
inactive: [1] 1.6 µM | [2] 3.1 µM | [3] 12.4 µM | [4] 2.07 µM | [5] 2.17 µM | [6] 1.72 µM | [7] 4.34 µM | [8] 1.9 µM | [9] 2.2 µM | [10] 3.01 µM | [11] 1.88 µM | [12] 6.55 µM | [13] 1.45 µM | [14] 1.84 µM | [15] 1.78 µM | [16] 1.51 µM | [17] 1.69 µM | [18] 2.9 µM | [19] 2.64 µM

CCC(=O)Nc1cccc(/N=C/c2ccc(OC(=O)/C=C\c3ccccc3)cc2)c1
inactive: [1] 65.9 µM | [2] 67 µM | [3] 41.3 µM | [4] 51.2 µM | [5] 29.9 µM | [6] 40.6 µM | [7] 15.5 µM | [8] 37.8 µM | [9] 33.7 µM | [10] > 75 µM | [11] > 75 µM | [12] > 75 µM | [13] 39.3 µM | [14] > 75 µM | [15] 58.6 µM | [16] 25.2 µM | [17] > 75 µM | [18] 32.5 µM | [19] 8.26 µM

COC(=O)C(=O)C(C#N)c1ccc(CC#N)cc1 (stereo not given)
inactive: [1] > 100 µM | [3] > 100 µM | [4] > 100 µM | [6] > 100 µM | [8] > 100 µM | [9] > 100 µM | [11] > 100 µM | [12] > 100 µM | [20] > 100 µM | [13] > 100 µM | [14] > 100 µM | [17] > 100 µM

N=C(N)NS(=O)(=O)c1ccc(NC(=O)c2ccc3nc4ccccc4c(O)c3c2)cc1
inactive: [1] > 100 µM | [2] > 100 µM | [3] > 100 µM | [4] > 100 µM | [5] > 100 µM | [6] 49.7 µM | [7] > 100 µM | [8] > 100 µM | [9] > 100 µM | [10] > 100 µM | [11] > 100 µM | [12] > 100 µM | [13] > 100 µM | [14] > 100 µM | [15] > 100 µM | [16] > 100 µM | [17] > 100 µM | [18] > 100 µM | [19] > 100 µM

O=C[C@]12CC=C3OC4OC5(CCCCC5)OC4[C@H]3[C@H]1C(=O)C=CC2=O (stereo not given in full)
inactive: [1] 9.84 µM | [3] 34.6 µM | [4] 12.1 µM | [5] 17.7 µM | [9] 5.9 µM | [11] 19 µM | [12] 28.4 µM | [20] 19 µM | [13] > 10 µM | [14] 21.1 µM | [17] 19.9 µM

O=[N+]([O-])c1cccc(C2=NN(c3ccccc3)C[N+](c3ccc(Br)cc3)=N2)c1
inactive: [1] > 100 µM | [3] 64.9 µM | [4] 96.4 µM | [5] > 100 µM | [8] 37.3 µM | [9] 77.1 µM | [11] 59 µM | [12] > 100 µM | [20] 46.8 µM | [13] 50.2 µM | [14] > 100 µM | [17] 97.1 µM

CCCC/C=C/C=C/C=C/CCCCCCCC(=O)OCC(COC(=O)CCCCCCC/C=C/C1C=CC(CCCC)C(C(=O)O)C1C(=O)O)OC(=O)CCCCCCC/C=C/C=C/C=C/CCCC.OCCNCO (stereo not given)
inactive: [1] 13.7 µM | [3] 17.8 µM | [4] 20 µM | [5] 17.4 µM | [6] 13.2 µM | [8] 19.8 µM | [11] 15.4 µM | [12] 20.2 µM | [20] 17.8 µM | [13] 19.5 µM | [14] 19.1 µM | [17] 17 µM

COc1ccc(/C=C2\SC(c3ccc(OC)cc3)N(NC(=O)Cc3ccccc3)C2=O)cc1 (stereo not given)
inactive: [1] > 100 µM | [3] > 100 µM | [4] > 100 µM | [5] > 100 µM | [6] > 100 µM | [8] > 100 µM | [9] > 100 µM | [11] > 100 µM | [20] > 100 µM | [13] 88.1 µM | [14] > 100 µM | [17] > 100 µM

O=C1/C(=C/c2ccccc2Cl)COc2ccccc21
inactive: [1] 15.2 µM | [3] 19.1 µM | [4] 15.1 µM | [6] 15.3 µM | [8] 18.1 µM | [9] 16.6 µM | [20] 17.5 µM | [13] 3.93 µM | [14] 15.1 µM | [17] 4.75 µM
